# Test system: Th1 (IL-2, IFN-γ, TNF alpha) and Th2 (IL-4, IL-5, IL-10) cytokines
# Experiment: Th1 & Th2 cytokines in lymph node cells of HBsAg immunized mice by flowcytometry
# Type: in vivo
# Details: adjuvant containing HBsAg; immunized mice day 28, flowcytometry
# Description: Cytokines (Th1 & Th2 responses) in serum by ELISA (Quantikine, R & D systems) and lymph node cells by flowcytometry collected from immunized mice on day 28th (Quantikine, optia Kit).
# High levels of Th1 cytokines were secreted in response to MDP and FCA containing HBsAg.
structure (smiles),measurement,value
"CC(=O)N[C@H]1C(O)O[C@H](CO)[C@@H](O)[C@@H]1O[C@H](C)C(=O)N[C@@H](C)C(=O)N[C@H](CCC(=O)O)C(N)=O (mixture of isomers) [MDP, Muramyl dipeptide]",Th1 and Th2 cytokines in lymph nodes cell culture fluid,very low for the Th2 cytokines and increased Th1 type of immune response

# From patent US20070275006A1, “IRIDOID GLYCOSIDE COMPOSITION” (priority 2006, published 2007)
